As a reminder, the EC50 is the concentration needed to bring the measured effect to its halfway point.

Results on one molecule are retold here after patent US8604059B2, “Thioxanthene derivatives for the treatment of infectious diseases” (BKG Pharma APS, priority 2009, dated 2013).

The subject of experiment [1] is Multiresistant clinical isolates E. coli. Description: Maximal reversal of resistance and synergistic effect (Table 4c). Type of experiment: cell-based. The following applies: E. coli multiresistant isolates. On the procedure:
The maximal obtained reversal of resistance and synergistic effect was tested as previously described.
Strains: Multiresistant clinical isolates E. coli, Ten strains in each group.

Experiment [2] relates to Enterococci sp. Description: MIC on multiresistant and susceptible clinical isolates of Enterococci (Table 2). In kind it is cell-based, Enterococcus faecalis and Enterococcus faecium. The settings on record: 8 multiresistant (VanA, VanB, HLAR, BLR,CR) and 8 susceptible isolates. How it is done:
Cell growth was tested using the Minimal Inhibitory Concentration (MIC) susceptibility tests by use of the microdilution broth method in accordance to the NCCLS Guidelines (NCCLS Guidelines, Methods for Dilution Antimicrobial Susceptibility Tests for Bacteria That Grow Aerobically; Approved Standard, Sixth Edition, Volume 23; Number 2). The minimum inhibitory concentration (MIC), is defined as the lowest concentration of drug which inhibits growth of the test organism, in the sense that no visible growth is detected (total inhibition of growth). In example 2, MIC of the compounds used on fungal microorgansims was determined from the IC90 measurements according to NCCLS Guidelines.
A log phase culture of bacteria was diluted with fresh pre-warmed Mueller-Hinton medium and adjusted to a defined OD at 600 nm in order to give a final concentration of 1×10^4-5 bacteria/ml medium. The bacterial culture was transferred to microtiter-plates and culture was added to each well. Drug was added to the bacterial culture in the wells as two-fold dilution series of drug in order to give final concentrations ranging from 0.03 to 128 μg/ml. Trays were incubated at 37° C. by shaking in a robot analyzer, PowerWavex, software KC^4′ Kebo. Lab, Copenhagen, for 16 h and optical densities were measured at 600 nm during the incubation time in order to record growth curves. […]

Experiment [3] concerns Enterococcus faecalis BG VSE-92. Put plainly: Mouse peritonitis/sepsis model, NMRI mice. Type of experiment: in vivo. The settings on record: 3.1 mg/kg s.c. How it is done: Mouse peritonitis/sepsis model.
A clinical isolate of Enterococcus faecalis BG VSE-92 from human urine was used. This strain is a multiresistant isolate.
Female NMRI mice (age, approximately 6 to 8 weeks; weight, 30±2 g) were used for the mouse […] peritonitis model (as described below).
Bacterial suspensions were prepared from fresh overnight cultures (made from frozen stock cultures) on 5% blood agar plates as described above. The inoculum for the mouse peritonitis model was prepared immediately before use and was adjusted at 540 nm of giving a density of approximately 10^7 CFU/ml. The size of the inoculum was determined by viability counting on 5% blood agar.
The mice were injected intraperitoneally with 0.5 ml of the enterococcal suspension, resulting in bacteremia within 1 h of inoculation. Antibiotic therapy was initiated 1 h after inoculation. N-dealkyl-Trans-clopenthixol was administered subcutaneously in the neck region in a volume of 0.7 ml per dose. Five mice were in each treatment group. Inoculated untreated control mice were included in all trials. (Method reference: Erlandsdottir et al; Antimicrob Agents Chemother. 2001 April; 45(4):1078-85)
The effects of the various treatment regimens were determined during 5 h of treatment by evaluation of bacterial counts in the peritoneal fluid. The bactericidal efficacies of the treatment regimens in the mouse models were calculated by subtracting the results for each treated mouse from the mean results for control mice at the end of therapy (5 h). A decrease of one thousand times (3 log 10 steps) represents maximum effect in this model and sustains strong bacterial killing effect of the compound tested.

Experiment [4] deals with S. aureus MRSA clinical isolates. Put plainly: FIC index, synergy with antibiotics (Table 4a). In kind it is cell-based, Staphylococcus aureus. The settings on record: with Dicloxacillin; 8 MRSA; mean; compound at ¼ of MIC. On the procedure:
The effect of the compounds was tested according to the methods described in WO2005/105145. In brief, cell growth was tested using the MIC susceptibility tests by use of the microdilution broth method in accordance to the NCCLS Guidelines (NCCLS Guidelines, Methods for Dilution Antimicrobial Susceptibility Tests for Bacteria That Grow Aerobically; Approved Standard, Sixth Edition, Volume 23; Number 2).
The Fractional Inhibitory Concentration (FIC) index were calculated for each compound as described in WO2005/105145. Synergy was defined for Fractional Inhibitory Concentration (FIC) indices less than 0.5
Staphylococcus aureus: 8 (MRSA) in vivo-selected clinical isolates. Resistant to methicillin and beta-lactam antibiotics. Susceptible to teicoplanin chloramphenicol, fosfomycin, netilmicin and vancomycin.

Experiment [5] deals with strain IIIB of HIV-1. Put plainly: Inhibition of HIV-1 replication in MT4 cells, MTT assay. In kind it is cell-based. How it is done: The enhancing effect of compound 3 on anti-viral agents was studied by checkerboard combination studies exposing HIV infected cells to 0-3 μM anti-viral agent in the absence or presence of compound 3 in concentrations from 0 to 6 μM. Each experiment was repeated in tripleduplicate. MIC values represent the mean values of two separate experiments.
The HIV-1 strain HTLV-IIIB were propagated in H9 cells at 37° C., 5% CO2 using RPMI 1640 with 10% heat-inactivated foetal calf serum (FCS) and antibiotics (growth medium). Culture supernatant was filtered ([…]), aliquotted, and stored at −80° C. until use. The HIV-1 strain was obtained from NIH AIDS Research and Reference Program.
Compounds were examined for possible antiviral activity against strain IIIB of HIV-1 using MT4 cells as target cells. MT4 cells were incubated with virus (0.005 MOI) and growth medium containing the test dilutions of compound(s) for six days in parallel with virus-infected and uninfected control cultures without compound added. Expression of HIV in the cultures was indirectly quantified using the MTT assay as previously described. Compounds mediating less than 30% reduction of HIV expression were considered without biological activity. Compounds were tested in parallel for cytotoxic effect in uninfected MT4 cultures containing the test dilutions of compound as described above. Cultures for test of both antiviral activity and cytotoxic effect were set up in tripleduplicates, […] per culture in micro titre plates. A 30% inhibition of cell growth relative to control cultures was considered significant. The 50% inhibitory concentration was determined by interpolation from the plots of percent inhibition versus concentration of compound.
EC50 is defined as the effective concentration that inhibits 50% of viral production, 50% of viral infectivity, or 50% of the virus-induced cytopathic effect.

“And” between values parts separate entries of the source, which are not always exact repeats. Equal values may be shown once.

`Clc1ccc2c(c1)/C(=C/CCC1CCNCC1)c1ccccc1S2` [Compound 3]: the “Maximal reversal of resistance: concentration of compound” value in experiment [1] was determined as 0.6 µg/mL. Moreover, the “MIC Mean (range)” value in experiment [2] is listed as 0.125 (0.06-0.125) μ/ml. Moreover, the “Decrease of number of bacteria per ml of peritoneal fluid” value in experiment [3] (5 hours, vs control) amounted to 3 log 10 steps. The “Bacteria survived after 5 hours” value in experiment [3] (p<0.05) amounted to 0.001%. In addition, the CFU/ml - peritoneum in experiment [3] (treatment 0 and 1 hour, sampling 5 hours, individual mice) was 2.05E+06 CFU/ml and 2.90E+06 CFU/ml and 4.25E+06 CFU/ml. The FIC index in experiment [4] is listed as 0.25. Besides, in experiment [5] (Human immunodeficiency virus 1, IIIB, 144 h, single agent, MT4 cells, six days, read-out: EC50), the 50% effective concentration (EC50) was above 4 µM. The “Antiviral effect alone” value in experiment [5] (at the concentrations used) is recorded as “no antiviral or cytotoxic effect”. The “Enhancement of the antiviral effect of AZT” value in experiment [5] (combination of compound 3 and AZT) was found to be 5 time.
